Source: ChEMBL document CHEMBL3745631, “Discovery of highly potent and selective Bruton's tyrosine kinase inhibitors: Pyridazinone analogs with improved metabolic stability” (Bioorg Med Chem Lett, 2016)

Tests used:
[1] = biological target: Tyrosine-protein kinase BTK (Mus musculus, UniProt P35991); assay: Inhibition of BTK in Balb/c mouse B cells assessed as inhibition of anti-IgM-stimulated CD86 expression by flow cytometry; assay type: cell-based
[2] = tested on: Hepatocyte; assay: Intrinsic clearance in human hepatocytes at 1 uM by LC-MS/MS analysis; assay type: ADME, cell-based
[3] = tested on: Blood; assay: Inhibition of IgE-stimulated CD63 expression in human whole blood
[4] = tested on: Monocyte; assay: Inhibition of IC-induced IL-1beta release in human monocytes
[5] = biological target: Tyrosine-protein kinase Fgr (Homo sapiens, UniProt P09769); assay: Inhibition of FGR (unknown origin) at 1 uM
[6] = biological target: Tyrosine-protein kinase Lck (Homo sapiens) (UniProt P06239); assay: Inhibition of LCK (unknown origin) at 1 uM
[7] = biological target: PAS domain-containing serine/threonine-protein kinase (Homo sapiens) (UniProt Q96RG2); assay: Inhibition of PASK (unknown origin) at 1 uM
[8] = biological target: Dual specificity protein kinase CLK4 (Homo sapiens) (UniProt Q9HAZ1); assay: Inhibition of CLK4 (unknown origin) at 1 uM
[9] = tested on: RAF proto-oncogene serine/threonine-protein kinase (Homo sapiens), P04049 [Y340D,Y341D]; assay: Inhibition of RAF1 Y340D, Y341D mutant (unknown origin) at 1 uM
[10] = biological target: High affinity nerve growth factor receptor (Homo sapiens) (UniProt P04629); assay: Inhibition of TrkA (unknown origin) at 1 uM
[11] = biological target: Dual specificity tyrosine-phosphorylation-regulated kinase 3 (Homo sapiens) (UniProt O43781); assay: Inhibition of DYRK3 (unknown origin) at 1 uM
[12] = biological target: Ephrin type-B receptor 1 (Homo sapiens) (UniProt P54762); assay: Inhibition of EphB1 (unknown origin) at 1 uM
[13] = biological target: Muscle, skeletal receptor tyrosine-protein kinase (Homo sapiens) (UniProt O15146); assay: Inhibition of MusK (unknown origin) at 1 uM
[14] = biological target: Tyrosine-protein kinase HCK (Homo sapiens) (UniProt P08631); assay: Inhibition of Hck (unknown origin) at 1 uM
[15] = biological target: Receptor tyrosine-protein kinase erbB-4 (Homo sapiens) (UniProt Q15303); assay: Inhibition of ErbB4 (unknown origin) at 1 uM
[16] = biological target: Tyrosine-protein kinase receptor TYRO3 (Homo sapiens) (UniProt Q06418); assay: Inhibition of Rse (unknown origin) at 1 uM
[17] = biological target: Cyclin-dependent kinase 5/CDK5 activator 1 (Homo sapiens) (UniProt Q00535+Q15078); assay: Inhibition of CDK5/p25 (unknown origin) at 1 uM; assay type: protein-complex assay
[18] = biological target: Mitogen-activated protein kinase kinase kinase 20 (Homo sapiens) (UniProt Q9NYL2); assay: Inhibition of ZAK (unknown origin) at 1 uM
[19] = biological target: G protein-coupled receptor kinase 3 (Homo sapiens) (UniProt P35626); assay: Inhibition of GRK3 (unknown origin) at 1 uM
[20] = biological target: Protein kinase C beta type (Homo sapiens) (UniProt P05771); assay: Inhibition of PKC beta1 (unknown origin) at 1 uM
[21] = biological target: Aurora kinase B (Homo sapiens) (UniProt Q96GD4); assay: Inhibition of AuroraB (unknown origin) at 1 uM
[22] = biological target: CDK2/Cyclin A2 (Homo sapiens) (UniProt P24941+P20248); assay: Inhibition of CDK2/cyclinA (unknown origin) at 1 uM; assay type: protein-complex assay
[23] = biological target: Activin receptor type-1 (Homo sapiens) (UniProt Q04771); assay: Inhibition of ALK2 (unknown origin) at 1 uM
[24] = biological target: Protein kinase C alpha type (Homo sapiens) (UniProt P17252); assay: Inhibition of PKC alpha (unknown origin) at 1 uM
[25] = biological target: Calcium/calmodulin-dependent protein kinase type II subunit beta (Homo sapiens) (UniProt Q13554); assay: Inhibition of CaMK2 beta (unknown origin) at 1 uM
[26] = biological target: 5'-AMP-activated protein kinase catalytic subunit alpha-1 (Homo sapiens) (UniProt Q13131); assay: Inhibition of PRKAA1 (unknown origin) at 1 uM
[27] = biological target: Serine/threonine-protein kinase PAK 3 (Homo sapiens) (UniProt O75914); assay: Inhibition of PAK3 (unknown origin) at 1 uM
[28] = biological target: Receptor-type tyrosine-protein kinase FLT3 (Homo sapiens) (UniProt P36888); assay: Inhibition of Flt3 (unknown origin) at 1 uM
[29] = biological target: Glycogen synthase kinase-3 beta (Homo sapiens) (UniProt P49841); assay: Inhibition of GSK3 beta (unknown origin) at 1 uM
[30] = biological target: Tyrosine-protein kinase Blk (Homo sapiens) (UniProt P51451); assay: Inhibition of Blk (unknown origin) at 1 uM
[31] = biological target: Mitogen-activated protein kinase 13 (Homo sapiens) (UniProt O15264); assay: Inhibition of p38 delta (unknown origin) at 1 uM
[32] = biological target: Calcium/calmodulin-dependent protein kinase kinase 2 (Homo sapiens) (UniProt Q96RR4); assay: Inhibition of CAMKK2 (unknown origin) at 1 uM
[33] = biological target: Ephrin type-A receptor 2 (Homo sapiens) (UniProt P29317); assay: Inhibition of EphA2 (unknown origin) at 1 uM
[34] = biological target: Platelet-derived growth factor receptor beta (Homo sapiens) (UniProt P09619); assay: Inhibition of PDGFR_beta (unknown origin) at 1 uM
[35] = biological target: Serine/threonine-protein kinase TBK1 (Homo sapiens) (UniProt Q9UHD2); assay: Inhibition of TBK1 (unknown origin) at 1 uM
[36] = biological target: Inhibitor of nuclear factor kappa-B kinase subunit alpha (Homo sapiens) (UniProt O15111); assay: Inhibition of IKK alpha (unknown origin) at 1 uM
[37] = biological target: Serine/threonine-protein kinase Nek6 (Homo sapiens) (UniProt Q9HC98); assay: Inhibition of NEK6 (unknown origin) at 1 uM
[38] = biological target: G protein-coupled receptor kinase 6 (Homo sapiens) (UniProt P43250); assay: Inhibition of GRK6 (unknown origin) at 1 uM
[39] = biological target: Homeodomain-interacting protein kinase 2 (Homo sapiens) (UniProt Q9H2X6); assay: Inhibition of HIPK2 (unknown origin) at 1 uM
[40] = biological target: Casein kinase I isoform alpha (Homo sapiens) (UniProt P48729); assay: Inhibition of CK1 alpha1 (unknown origin) at 1 uM
[41] = biological target: Protein-tyrosine kinase 2-beta (Homo sapiens) (UniProt Q14289); assay: Inhibition of FAK2 (unknown origin) at 1 uM
[42] = biological target: Calcium/calmodulin-dependent protein kinase kinase 1 (Homo sapiens) (UniProt Q8N5S9); assay: Inhibition of CAMKK1 (unknown origin) at 1 uM
[43] = biological target: MAP/microtubule affinity-regulating kinase 3 (Homo sapiens) (UniProt P27448); assay: Inhibition of MARK3 (unknown origin) at 1 uM
[44] = biological target: Serine/threonine-protein kinase D1 (PRKD1) (Homo sapiens) (UniProt Q15139); assay: Inhibition of PKD1 (unknown origin) at 1 uM
Chain of Serine/threonine-protein kinase D1 (PRKD1) (Homo sapiens) (Q15139 whole entry, looked up): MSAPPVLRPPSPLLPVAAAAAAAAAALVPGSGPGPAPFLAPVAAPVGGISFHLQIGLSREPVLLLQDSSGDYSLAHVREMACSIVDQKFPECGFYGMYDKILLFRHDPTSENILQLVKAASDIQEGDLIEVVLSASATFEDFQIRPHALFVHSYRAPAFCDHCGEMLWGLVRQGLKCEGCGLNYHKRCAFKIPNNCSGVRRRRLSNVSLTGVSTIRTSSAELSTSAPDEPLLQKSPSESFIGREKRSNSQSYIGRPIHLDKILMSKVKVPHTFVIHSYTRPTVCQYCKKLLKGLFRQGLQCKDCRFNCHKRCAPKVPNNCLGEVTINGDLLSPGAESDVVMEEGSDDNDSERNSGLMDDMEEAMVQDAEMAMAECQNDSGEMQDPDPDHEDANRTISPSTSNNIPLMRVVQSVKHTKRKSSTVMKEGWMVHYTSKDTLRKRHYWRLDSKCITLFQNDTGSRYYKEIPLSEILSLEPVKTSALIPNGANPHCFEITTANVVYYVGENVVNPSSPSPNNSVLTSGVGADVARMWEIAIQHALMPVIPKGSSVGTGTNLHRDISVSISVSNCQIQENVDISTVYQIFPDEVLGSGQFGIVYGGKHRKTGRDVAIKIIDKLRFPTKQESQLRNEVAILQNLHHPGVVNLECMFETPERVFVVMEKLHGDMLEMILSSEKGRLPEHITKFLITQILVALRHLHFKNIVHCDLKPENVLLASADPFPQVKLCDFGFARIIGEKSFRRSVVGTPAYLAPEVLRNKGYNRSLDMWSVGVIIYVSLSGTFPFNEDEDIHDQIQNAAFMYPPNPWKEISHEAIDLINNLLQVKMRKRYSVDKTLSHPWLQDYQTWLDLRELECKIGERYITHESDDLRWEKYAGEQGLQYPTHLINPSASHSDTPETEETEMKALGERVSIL

Chain of Mitogen-activated protein kinase 13 (Homo sapiens) (O15264 whole entry): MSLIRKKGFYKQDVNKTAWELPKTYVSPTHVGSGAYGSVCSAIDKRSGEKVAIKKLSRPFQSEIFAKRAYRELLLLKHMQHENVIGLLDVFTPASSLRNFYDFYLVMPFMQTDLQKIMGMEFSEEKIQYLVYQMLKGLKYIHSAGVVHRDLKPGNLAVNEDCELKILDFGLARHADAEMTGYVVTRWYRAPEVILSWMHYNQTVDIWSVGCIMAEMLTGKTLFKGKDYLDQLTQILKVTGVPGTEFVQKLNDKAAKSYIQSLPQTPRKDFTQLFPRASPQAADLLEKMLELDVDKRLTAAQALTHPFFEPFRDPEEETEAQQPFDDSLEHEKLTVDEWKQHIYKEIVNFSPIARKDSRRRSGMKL
Chain of Aurora kinase B (Homo sapiens) (Q96GD4 whole entry): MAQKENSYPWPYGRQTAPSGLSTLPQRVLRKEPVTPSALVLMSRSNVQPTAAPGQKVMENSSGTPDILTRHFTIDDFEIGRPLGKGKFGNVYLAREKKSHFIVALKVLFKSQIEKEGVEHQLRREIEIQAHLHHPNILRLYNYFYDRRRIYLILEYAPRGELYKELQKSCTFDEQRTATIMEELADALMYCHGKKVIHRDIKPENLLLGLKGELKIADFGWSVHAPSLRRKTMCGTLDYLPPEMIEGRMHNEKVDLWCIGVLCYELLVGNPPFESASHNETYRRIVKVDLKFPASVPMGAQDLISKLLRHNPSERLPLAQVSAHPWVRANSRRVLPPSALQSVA
Chain of Tyrosine-protein kinase Blk (Homo sapiens) (P51451 2-505 limits assumed): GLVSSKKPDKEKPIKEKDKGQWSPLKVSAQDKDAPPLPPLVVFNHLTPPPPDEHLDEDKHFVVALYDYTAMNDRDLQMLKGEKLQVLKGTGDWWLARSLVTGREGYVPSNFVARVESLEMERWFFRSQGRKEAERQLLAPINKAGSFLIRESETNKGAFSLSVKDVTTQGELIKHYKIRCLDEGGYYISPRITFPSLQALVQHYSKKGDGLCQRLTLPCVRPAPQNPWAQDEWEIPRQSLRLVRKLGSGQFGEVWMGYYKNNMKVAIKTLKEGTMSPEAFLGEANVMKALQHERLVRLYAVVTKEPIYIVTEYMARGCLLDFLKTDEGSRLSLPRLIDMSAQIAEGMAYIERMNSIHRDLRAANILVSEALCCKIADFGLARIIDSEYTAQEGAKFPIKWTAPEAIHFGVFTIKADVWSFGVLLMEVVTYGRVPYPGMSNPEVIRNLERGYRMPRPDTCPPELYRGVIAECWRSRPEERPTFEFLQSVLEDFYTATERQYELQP
Chain of Calcium/calmodulin-dependent protein kinase type II subunit beta (Homo sapiens) (Q13554 whole entry): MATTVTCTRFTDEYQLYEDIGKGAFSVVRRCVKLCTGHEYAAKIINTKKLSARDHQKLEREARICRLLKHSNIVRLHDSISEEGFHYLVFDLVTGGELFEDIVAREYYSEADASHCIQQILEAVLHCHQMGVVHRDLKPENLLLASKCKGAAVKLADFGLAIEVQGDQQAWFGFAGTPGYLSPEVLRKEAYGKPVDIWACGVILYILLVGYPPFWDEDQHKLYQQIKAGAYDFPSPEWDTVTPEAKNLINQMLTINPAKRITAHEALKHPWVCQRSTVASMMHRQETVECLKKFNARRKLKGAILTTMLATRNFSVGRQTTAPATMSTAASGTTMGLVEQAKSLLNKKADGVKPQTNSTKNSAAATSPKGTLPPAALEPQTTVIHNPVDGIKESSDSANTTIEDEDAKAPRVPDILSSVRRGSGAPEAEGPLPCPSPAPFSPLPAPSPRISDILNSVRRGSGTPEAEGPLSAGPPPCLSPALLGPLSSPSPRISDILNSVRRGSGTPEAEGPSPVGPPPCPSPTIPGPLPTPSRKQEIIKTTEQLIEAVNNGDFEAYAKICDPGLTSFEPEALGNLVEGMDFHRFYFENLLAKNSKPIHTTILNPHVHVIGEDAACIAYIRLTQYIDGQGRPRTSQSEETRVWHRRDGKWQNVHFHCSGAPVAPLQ
Chain of G protein-coupled receptor kinase 3 (Homo sapiens) (P35626 whole entry): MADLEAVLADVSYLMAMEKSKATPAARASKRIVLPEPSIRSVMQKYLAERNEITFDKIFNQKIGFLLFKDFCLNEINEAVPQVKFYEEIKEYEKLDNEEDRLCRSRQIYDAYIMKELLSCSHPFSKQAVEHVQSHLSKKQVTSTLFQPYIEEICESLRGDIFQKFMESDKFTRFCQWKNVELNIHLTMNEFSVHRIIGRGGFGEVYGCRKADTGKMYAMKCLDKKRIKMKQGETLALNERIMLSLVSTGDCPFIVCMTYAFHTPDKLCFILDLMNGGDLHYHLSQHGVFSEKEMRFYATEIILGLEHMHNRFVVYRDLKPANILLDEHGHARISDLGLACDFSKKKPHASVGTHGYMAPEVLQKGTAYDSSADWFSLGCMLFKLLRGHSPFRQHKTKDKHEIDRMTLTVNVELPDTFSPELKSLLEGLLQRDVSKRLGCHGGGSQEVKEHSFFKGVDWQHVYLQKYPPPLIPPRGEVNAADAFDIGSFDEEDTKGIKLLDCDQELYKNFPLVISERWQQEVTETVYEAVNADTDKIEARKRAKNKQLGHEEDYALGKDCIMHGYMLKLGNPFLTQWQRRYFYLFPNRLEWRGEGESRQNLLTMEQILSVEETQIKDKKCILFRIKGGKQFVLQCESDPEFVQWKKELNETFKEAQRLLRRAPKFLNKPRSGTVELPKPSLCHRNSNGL
Chain of Serine/threonine-protein kinase PAK 3 (Homo sapiens) (O75914 whole entry, looked up): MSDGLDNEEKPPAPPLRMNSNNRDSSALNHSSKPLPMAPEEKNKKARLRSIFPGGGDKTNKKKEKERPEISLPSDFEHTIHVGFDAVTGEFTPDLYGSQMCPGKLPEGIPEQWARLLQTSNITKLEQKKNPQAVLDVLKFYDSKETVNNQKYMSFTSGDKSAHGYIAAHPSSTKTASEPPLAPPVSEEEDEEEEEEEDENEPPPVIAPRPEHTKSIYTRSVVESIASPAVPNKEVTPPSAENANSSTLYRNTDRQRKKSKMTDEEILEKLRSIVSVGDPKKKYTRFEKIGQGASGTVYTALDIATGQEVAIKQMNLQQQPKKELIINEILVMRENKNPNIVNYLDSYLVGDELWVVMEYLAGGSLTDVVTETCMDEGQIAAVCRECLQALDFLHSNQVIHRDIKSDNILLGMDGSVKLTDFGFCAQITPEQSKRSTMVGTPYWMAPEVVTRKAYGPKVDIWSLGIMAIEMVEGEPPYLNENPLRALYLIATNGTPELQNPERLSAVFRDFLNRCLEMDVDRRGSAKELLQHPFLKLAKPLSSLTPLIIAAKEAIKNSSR
Chain of Serine/threonine-protein kinase Nek6 (Homo sapiens) (Q9HC98 whole entry): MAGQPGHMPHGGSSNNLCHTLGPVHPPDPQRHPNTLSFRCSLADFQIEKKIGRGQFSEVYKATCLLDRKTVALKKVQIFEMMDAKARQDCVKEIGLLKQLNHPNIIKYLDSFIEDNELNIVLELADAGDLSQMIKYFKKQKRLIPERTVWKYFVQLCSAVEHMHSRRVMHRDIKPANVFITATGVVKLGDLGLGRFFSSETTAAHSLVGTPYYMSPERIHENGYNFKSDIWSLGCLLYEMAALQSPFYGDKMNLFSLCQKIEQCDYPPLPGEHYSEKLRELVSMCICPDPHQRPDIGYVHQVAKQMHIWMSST

IC50 [1]: 91 nM
CLH [2]: < 6 mL/min/kg
EC50 [3]: 257 nM
EC50 [4]: 22 nM
inhibition [5]: 69.8%
inhibition [6]: 39.3%
inhibition [7]: 6.2%
inhibition [8]: 5.8%
inhibition [9]: 5.5%
inhibition [10]: -8%
inhibition [11]: 3.3%
inhibition [12]: 3.2%
inhibition [13]: 1.4%
inhibition [14]: 3%
inhibition [15]: 2.7%
inhibition [16]: 2.5%
inhibition [17]: 2.4%
inhibition [18]: 0.8%
inhibition [19]: 0.7%
inhibition [20]: 0.2%
inhibition [21]: -0.4%
inhibition [22]: -0.9%
inhibition [23]: -2.1%
inhibition [24]: -2.1%
inhibition [25]: -2.2%
inhibition [26]: -2.2%
inhibition [27]: 14.6%
inhibition [28]: 11.6%
inhibition [29]: 11.1%
inhibition [30]: 10.6%
inhibition [31]: 8.6%
inhibition [32]: 8.2%
inhibition [33]: 8%
inhibition [34]: 8%
inhibition [35]: 7.5%
inhibition [36]: 5.3%
inhibition [37]: 5.3%
inhibition [38]: 4.7%
inhibition [39]: 4.5%
inhibition [40]: 4%
inhibition [41]: 4%
inhibition [42]: -5.4%
inhibition [43]: -5.4%
inhibition [44]: 1.6%
Compound: Cc1c(-c2cc(Nc3cc4n(n3)CCN(C)C4)c(=O)[nH]n2)ccc(F)c1NC(=O)c1cc2ccccc2s1
